Measurements: the supplement of paper PMC10307832

Tests used:
Experiment in all cases: relative viability (nuclei count vs DMSO), 5 days (fraction); higher = more cells survive
[1] = compound: CN1CCN(CC1)C2=CC(=C(C=C2)NC3=NC=C4C(=N3)N(C5=CC=CC=C5C(=O)N4C)C)OC [XMD8-85] + COc1cc2c(Oc3ccc(NC(=O)C4(C(=O)Nc5ccc(F)cc5)CC4)cc3F)ccnc2cc1OCCCN1CCOCC1 [Foretinib] (partner 0.25 µM)
Method in brief: (§1)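 Lung cancer cell lines were seeded in 1536-well plates and dosed by pin tool the next day, with either a single drug or a fixed anchor-drug dose combined with five library-drug doses (not always all listed) spaced in √10 steps. Five days later, one step fixed the cells and stained their nuclei (final 0.05% Triton X-100, 1% formaldehyde, 1 ug/ml Hoechst), and nuclei were counted on 4× images. Relative viability is the nuclei count in treated wells divided by the count in vehicle wells, and each value is the median of duplicate plates.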

[2] = compound: CN1CCN(CC1)C2=CC(=C(C=C2)NC3=NC=C4C(=N3)N(C5=CC=CC=C5C(=O)N4C)C)OC [XMD8-85] + O=C(CCCCCCC(=O)Nc1ccccc1)NO [Vorinostat] (partner 1 µM)
Method in brief: as §1

[3] = compound: O=C(O)C(Cc1ccccc1[N+](=O)[O-])=NNc1nc(-c2ccc(Cl)c(Cl)c2)cs1 (mixture of isomers) [4EGI-1] + CC(=O)Nc1cccc(-n2c(=O)n(C3CC3)c(=O)c3c(Nc4ccc(I)cc4F)n(C)c(=O)c(C)c32)c1 [Trametinib] (partner 0.02 µM)
Method in brief: as §1

[4] = compound: O=C(O)C(Cc1ccccc1[N+](=O)[O-])=NNc1nc(-c2ccc(Cl)c(Cl)c2)cs1 (mixture of isomers) [4EGI-1] + CC1(C)CCC(c2ccc(Cl)cc2)=C(CN2CCN(c3ccc(C(=O)NS(=O)(=O)c4ccc(N[C@H](CCN5CCOCC5)CSc5ccccc5)c(S(=O)(=O)C(F)(F)F)c4)cc3)CC2)C1 [Navitoclax] (partner 0.5 µM)
Method in brief: as §1

Cell Line	relative viability ([1]; first compound 0.08 µM)	relative viability ([1]; first compound 0.253 µM)	relative viability ([1]; first compound 0.8 µM)	relative viability ([1]; first compound 2.53 µM)	relative viability ([1]; first compound 8 µM)	relative viability ([2]; first compound 0.08 µM)	relative viability ([2]; first compound 0.253 µM)	relative viability ([2]; first compound 0.8 µM)	relative viability ([2]; first compound 2.53 µM)	relative viability ([2]; first compound 8 µM)	relative viability ([3]; first compound 0.5 µM)	relative viability ([3]; first compound 1.581 µM)	relative viability ([3]; first compound 5 µM)	relative viability ([3]; first compound 15.81 µM)	relative viability ([3]; first compound 50 µM)	relative viability ([4]; first compound 0.5 µM)	relative viability ([4]; first compound 1.581 µM)	relative viability ([4]; first compound 5 µM)	relative viability ([4]; first compound 15.81 µM)	relative viability ([4]; first compound 50 µM)
COR-L23	1.02	1.05	1.06	0.998	0.773	0.413	0.486	0.558	0.516	0.236	0.898	0.336	0.628	0.415	0.16	1.22	0.802	1.1	0.691	0.147
NCI-H1793		0.668	0.681	0.783	0.594		0.665	0.63	0.916	0.497	0.49	0.431	0.414	0.407	0.273	0.676	0.49	0.463	0.54	0.388
NCI-H2085	0.902	0.854	0.823	0.751	0.563	0.774	0.812	0.762	0.756	0.546	0.553	0.594	0.53	0.355	0.364	1.19	1.01	1.2	0.931	0.743
SW 900	0.942	0.922	1.58	0.466	0.403	0.372	0.584	0.434	0.671	0.188	1.11	0.8	0.773	0.584	0.173					
NCI-H520	0.798	0.729	0.895	0.741	0.484	0.774	0.69		0.673	0.331	0.947	0.83	0.749	0.724	0.145	1.23	1.11	1.14	1.02	0.431
NCI-H358	0.656	0.774	0.84	0.673	0.422		0.635	0.71	0.619	0.261	0.154	0.132	0.151	0.114	0.123					
NCI-H1650	1.12	1.19	1.17	0.863	0.32	0.674	0.596	0.594	0.578	0.253	0.658		0.643	0.275	0.182	1.23		0.932	0.354	0.286
RERF-LC-KJ	0.84	0.762	0.877	0.877	0.849	0.656	0.671	0.849	0.685	0.43	0.887	0.679	0.851	0.726	0.516	0.902		0.858	0.632	0.706
Calu-6	0.858	0.948	0.879	0.804	0.674											0.909	0.759	1.01	0.847	0.213
NCI-H1299	1.13	1.1	1.1	1.11	0.86											1.1	1.04	1.04	0.986	1.08
HCC-44						1.11	1.07	1.07	1.16	1.04	1.04	0.948	0.994	0.921	0.507	0.957	0.596	0.949	0.958	0.35
A549	1.02	0.869	1.11	1.05	0.913											1.29	1.2	1.24	1.17	0.217
NCI-H2342	0.993	0.938	1.15	0.971	0.946	0.767	0.75	0.72	0.927	0.991	0.894	0.802	0.881	0.98	0.906					
NCI-H1563	1.05	0.935	0.836	0.892	0.767															
IA-LM	1.07	1.11	1.24	0.964	0.292	0.824	0.731	0.812	0.662	0.588						0.889	0.751	0.444	0.112	0.0676
NCI-H1623	0.986	0.816	0.789	0.857	0.667															
NCI-H650	1.05	0.997	0.947	1.04	0.685	0.447	0.388	0.433	0.465	0.295	1.07		1.02	0.984	0.833					
NCI-H661	1.16	1.09	0.989	1.07	0.91	0.835	0.788	0.809	0.743	0.588	0.653	0.524	0.572	0.439	0.29					
NCI-H522						0.936	0.877	0.918	0.884	0.654	0.787	0.681	0.847	0.859	0.677					
